Test results reported in patent publication US4826850A, “Quinoline base compound, process for the preparation thereof and anticancer agent containing the same as pharmacologically efficacious component” (Mect Corporation, priority 1986, dated 1989).
Values after ≈ are worked out from the molar mass of the structure shown.

What was measured:
[1] = acridine derivatives, literature; cited from earlier work
KB cells = assay: Effect in inhibiting growth of KB-cells (in vitro); assay type: cell-based; settings: Homo sapiens, 72 h, drug added day 1, cells counted day 4, inhibition rate 50%, read-out: Concentration giving 50% growth inhibition (ED50; Inhibition Rate 50%)
Protocol: (1) Effect in Inhibiting Growth of KB-Cells
The KB-cell, one of the cancer-causing tumor cells, was incubated in an in vitro floating incubation system, and the pharmacological effects of the Compounds (4) and (5) were compared with a control to which the compounds had not been added.
KB Cells (derived from a human epidermoid carcinoma of the mouth).
Eagles minimal essential medium (MEM)-10% calf serum.
37° C. in a carbon dioxide gas incubator (5% CO2).
Day 0: The KB cells were diluted to 2×10^4 /ml medium. 3 ml of the thus diluted KB cell suspension was incubated on a 60 mm plastic dish, at 2 dishes per dose level.
Day 1: Each drug was added into each dish so that the drug content in each dish was adjusted, respectively, to 100, 30, 10, 3 and 1 μg/ml.
Day 4: The cells were stripped from the surface of each dish, and the number of cells was counted using a Kohlter's counter.
A substance or drug having an ED50 value of not more than 4 μg/ml for a synthesized product was appraised as an effective substance. Meanwhile, in evaluating the effect of inhibiting growth of KB-cells, the number of surviving cells was counted by a Kohlter's counter, and the counted number was compared to that of the control (without the addition of the Compound (1)) to find the concentration of the drug for inhibiting the growth by 50%, the thus found concentration being estimated as the ED50 value.

P-388 = assay: Effect in prolonging life of P-388 mice; assay type: in vivo, mouse; settings: CDF1 mice, P-388 i.p., control 100
Protocol: Test Example 2: Effect in Prolonging the Life of Mouse with Cancer, and Acute Toxicity of Drugs
Using P-388 mice with cancer, the pharmacological efficacy of the aforementioned compounds was evaluated by comparing with a control to which no such compound had been added.
Animal Used: CDF1 Mice (6 mice/group)
Number of Incubated Cells: 10^6 cells/mouse
Days at which Drugs Were Administered: Days 1 and 5, or days 1 to 9
Quantities of Drugs Administered: When a drug was administered at days 1 and 5, the maximum dosed quantity was set at LD50 or 400 mg/kg/day; and when a drug was administered at days 1 to 9, the maximum dosed quantity was set at 1/2×LD50 or 200 mg/kg/day. The experiment was conducted with groups of mice being administered the respective drugs at 3 dose levels incuding the maximum level, 1/2 of the maximum level and 1/4 of the maximum level.
When the T/C %, i.e. the ratio of the survival time (days) of a treated group (administered with a certain drug) to the survival time of a control group (administered with no drug), was 120% or more for a synthesized substance and 130% or more for a natural substance, the drug was appraised as effective (P). The survival time of the group administered with no drug is normally about 10 days (median survival time). In the following Table, an indication of "T/C 0%" means that not less than three mice were dead due to toxicity within 5 days.

| Compound | Anticancer effect [1] | IC50 (KB cells) [mg/L] | Life Prolonging Rate (T/C) (P-388; Dosage 12.5 mg/kg) [%] | Life Prolonging Rate (T/C) (P-388; Dosage 25 mg/kg) [%] | Life Prolonging Rate (T/C) (P-388; Dosage 50 mg/kg) [%] | Life Prolonging Rate (T/C) (P-388; Dosage 100 mg/kg) [%] | Life Prolonging Rate (T/C) (P-388; Dosage 200 mg/kg) [%] | Life Prolonging Rate (T/C) (P-388; Dosage 400 mg/kg, T/C 0% means not less than three mice dead due to toxicity within 5 days) [%] |
| --- | --- | --- | --- | --- | --- | --- | --- | --- |
| COc1cc(NS(C)(=O)=O)ccc1Nc1c2c(nc3ccccc13)CCCC2 [tetrahydroamsacrine] | reduced anticancer effect |  |  |  |  |  |  |  |
| COc1cc(NS(C)(=O)=O)ccc1Nc1c2ccccc2nc2c1sc1ccccc12 [Compound 5, N-(4-((benzothieno(3,2-b)quinoline-11-yl)amino)-3-methoxyphenyl)methanesulfoneamide] |  | 0.3 (≈ 0.667 µM) | 138 | 170 | 170 |  |  |  |
| COc1cc(NS(C)(=O)=O)ccc1Nc1c2ccccc2nc2c1oc1ccccc12 [Compound 4, N-(4-((benzofuro(3,2-b)quinoline-11yl)amino)-3-methoxyphenyl)methane sulfoneamide] |  | 0.3 (≈ 0.692 µM) | 180 | 195 | 200 |  |  |  |
| COc1cc(NS(C)(=O)=O)ccc1Nc1c2c(nc3ccccc13)-c1ccccc1C2 [Compound 6] |  | < 0.3 | 166 |  | 217 | 240 | 60 | 0 |
| COc1cc(NS(C)(=O)=O)ccc1Nc1c2ccccc2nc2ccccc12 [amsacrine, N-(4-(9-acridinylamino)-3-methoxyphenyl)-methanesulfoneamide] | most effective derivative |  |  |  |  |  |  |  |
